Data from US20040071768A1, “Compositions and methods for treating cancer” (Inex Pharmaceuticals Corporation, priority 1999, published 2004).
Where two headings read alike, the source gives them in different places.

Key:
[1] = system: LX-1 small cell lung xenografts; assay: Single dose anti-tumor activity, LX-1 small cell lung xenograft; format: in vivo
Procedure: (§1) Female NCr nude mice were injected intravenously via the lateral tail vein on day 11 post-tumor-implantation with saline (♦), NVB at 25.5 mg/kg (◯), or NVB-TCS at 15.0 mg/kg (●) and 11.0 mg/kg (▪) at a drug-to-lipid ratio of 0.3:1 (w/w). The arrow on the x-axis denotes the day of drug administration. Data points represent mean±SEM (n=7).
Vinorelbine is used clinically in the treatment of advanced NSCLC and metastatic breast cancer.
(§2) Tumor models investigated included RXF393 (renal), MX-1 (breast), LX-1 (small cell lung cancer), PC-3 (prostate), and HT29 (colon). These models were known to be sensitive to vinorelbine. Tumor fragments were implanted subcutaneously in the flank of NCr nu/nu mice. […] Animal weights and tumor size were determined twice weekly.

[2] = system: MDA-MB-435 breast xenografts
Procedure: Female NCr nude mice were injected intravenously (q7dx3, beginning day 15) via the lateral tail vein. […] Paclitaxel (⋄) was prepared in […]/12.5% ethanol/75% saline and injected iv (q1dx5) at a dose of 15 mg/kg/dose. Drug-to-lipid ratio was 0.3/1 (w/w). Data points represent median tumor volume (n=6).
The anti-tumor activity of multiple (q7d3) dose schedules of liposomal vinorelbine was evaluated in several human xenograft tumor models. The goal of this series of studies was to identify the benefits of encapsulation by evaluating a series of doses and determining the therapeutic index in several xenograft models. Models were selected based on the following criteria: (1) activity in the single dose studies, (2) a comprehensive literature review of vinca alkaloid efficacy, (3) a desire to include at least 2-3 models that represent the clinical use of vinorelbine, and (4) a desire to include models with a range of sensitivity to vinorelbine so that improvements resulting from the use of the liposome formulation might be identified. Based on these criteria, MX-1 and MDA-MB-435 breast models, the NCl-H460 NSCLC model and the HT-29 and DLD-1 colon models were chosen.
Therapeutic index (TI) is a parameter that quantifies the “safety factor” of a particular therapy. TI is a ratio of a toxicity parameter and a biological activity parameter. Therefore, a higher ratio represents a greater potential margin of safety. For these studies, TI is defined as follows: […]
The minimal effective dose (MED) was set according to NCl activity criteria as the dose resulting in an optimal % T/C of 40. This information was derived from Table 7.

[3] = system: RXF393 renal xenografts; assay: Single dose anti-tumor activity, RXF393 renal xenograft; format: in vivo; conditions: RXF-393
Procedure: as §1, with “Male NCr” for “Female NCr”, “day 7” for “day 11”, “at 45.0” for “at 25.5”, “mg/kg (◯) and 34.0 mg/kg (□),” for “mg/kg (◯),”, “mean±SEM (n=10). […]” for “mean±SEM (n=7).”
as §2

[4] = animal studies and clinical trials; cited from earlier work
[5] = mice; cited from earlier work
[6] = system: MX-1 breast xenografts; assay: Single dose anti-tumor activity, MX-1 breast xenograft; format: in vivo
Procedure: Female NCr nude mice were injected intravenously via the lateral tail vein on day 8 post-tumor-implantation with saline (♦), NVB at 34.0 mg/kg (◯) and 25.5 mg/kg (□), or NVB-TCS at 15.0 mg/kg (●) and 11.0 mg/kg (▪) at a drug-to-lipid ratio of 0.3:1 (w/w). The arrow on the x-axis denotes the day of drug administration. Data points represent mean±SEM (n=10). […]
as §2

[7] = Maximum tolerable dose (MTD) of free and liposomal vinorelbine; format: in vivo, nude and ICR mice
Procedure: Single and multiple (q7dx3) dose MTD studies were performed in tumor-bearing and non-tumor bearing NCr nu/nu mice, as well as healthy, outbred ICR mice.

[8] = cited from earlier work
[9] = clinical hematological toxicity

Structure (SMILES): CCC1=C[C@@H]2CN(C1)Cc1c([nH]c3ccccc13)[C@@](C(=O)OC)(c1cc3c(cc1OC)N(C)[C@H]1[C@@](O)(C(=O)OC)[C@H](OC(C)=O)[C@]4(CC)C=CCN5CC[C@]31[C@@H]54)C2 [VRL, 5′-noranhydrovinblastine]
- % T/C (optimal % T/C following final treatment) ([1]; single i.v. dose 25.5 mg/kg): 23%
- DRD (drug related deaths) ([1]; single i.v. dose 25.5 mg/kg): 0/6
- NCI Score ([1]; single i.v. dose 25.5 mg/kg): 1
- T-C (tumor growth delay to 1000 mm^3) ([1]; single i.v. dose 25.5 mg/kg): 7
- TF (tumor free animals at the end of study) ([1]; single i.v. dose 25.5 mg/kg): 0/6
- % T/C (optimal % T/C following final treatment) ([1]; single i.v. dose 34 mg/kg): Toxic
- DRD (drug related deaths) ([1]; single i.v. dose 34 mg/kg): 7/7
- % T/C (optimal % T/C following final treatment) ([1]; single i.v. dose 45 mg/kg): Toxic
- DRD (drug related deaths) ([1]; single i.v. dose 45 mg/kg): 7/7
- % T/C (optimal % T/C following final treatment) ([2]; 5 mg/kg i.v. q7dx3): −3%
- DRD (drug related deaths, n = 6) ([2]; 5 mg/kg i.v. q7dx3): 0
- NCI Score ([2]; 5 mg/kg i.v. q7dx3): 2
- T-C (tumor growth delay to 1000 mm^3) ([2]; 5 mg/kg i.v. q7dx3): 37.5
- TF (tumor free animals at the end of study) ([2]; 5 mg/kg i.v. q7dx3, n=6): 0
- % T/C (optimal % T/C following final treatment) ([2]; 10 mg/kg i.v. q7dx3): −100%
- DRD (drug related deaths, n = 6) ([2]; 10 mg/kg i.v. q7dx3): 0
- NCI Score ([2]; 10 mg/kg i.v. q7dx3): 3
- T-C (tumor growth delay to 1000 mm^3) ([2]; 10 mg/kg i.v. q7dx3): >62
- TF (tumor free animals at the end of study) ([2]; 10 mg/kg i.v. q7dx3, n=6): 1
- % T/C (optimal % T/C following final treatment) ([2]; 20 mg/kg i.v. q7dx3): −100%
- DRD (drug related deaths, n = 6) ([2]; 20 mg/kg i.v. q7dx3): 2
- NCI Score ([2]; 20 mg/kg i.v. q7dx3): 4
- T-C (tumor growth delay to 1000 mm^3) ([2]; 20 mg/kg i.v. q7dx3): >62
- TF (tumor free animals at the end of study) ([2]; 20 mg/kg i.v. q7dx3, n=6): 4
- % T/C (optimal % T/C following final treatment) ([2]; 30 mg/kg i.v. q7dx3): −100%
- DRD (drug related deaths, n = 6) ([2]; 30 mg/kg i.v. q7dx3): 1
- NCI Score ([2]; 30 mg/kg i.v. q7dx3): 4
- T-C (tumor growth delay to 1000 mm^3) ([2]; 30 mg/kg i.v. q7dx3): >62
- TF (tumor free animals at the end of study) ([2]; 30 mg/kg i.v. q7dx3, n=6): 3
- % T/C (optimal % T/C following final treatment) ([3]; single i.v. dose 34 mg/kg): −6%
- DRD (drug related deaths) ([3]; single i.v. dose 34 mg/kg): 2/10
- MWL (maximum mean weight loss per treatment group) ([3]; single i.v. dose 34 mg/kg): −23.1
- NCI Score ([3]; single i.v. dose 34 mg/kg): 2
- T-C (tumor growth delay to 1000 mm^3) ([3]; single i.v. dose 34 mg/kg): 22
- TF (tumor free animals at the end of study) ([3]; single i.v. dose 34 mg/kg): 2/8
- % T/C (optimal % T/C following final treatment) ([3]; single i.v. dose 45 mg/kg): Toxic
- DRD (drug related deaths) ([3]; single i.v. dose 45 mg/kg): 9/10
- MWL (maximum mean weight loss per treatment group) ([3]; single i.v. dose 45 mg/kg): −24.6
- TF (tumor free animals at the end of study) ([3]; single i.v. dose 45 mg/kg): 0/1
- drug excreted in feces [4]: 40-50%
- drug excreted in urine [4]: ~20%
- published LD50 [5]: 34 mg/kg
- % T/C (optimal % T/C following final treatment) ([6]; single i.v. dose 25.5 mg/kg): 13%
- DRD (drug related deaths) ([6]; single i.v. dose 25.5 mg/kg): 1/10
- MWL (maximum mean weight loss per treatment group) ([6]; single i.v. dose 25.5 mg/kg): −14.8
- NCI Score ([6]; single i.v. dose 25.5 mg/kg): 1
- T-C (tumor growth delay to 1000 mm^3) ([6]; single i.v. dose 25.5 mg/kg): 13
- TF (tumor free animals at the end of study) ([6]; single i.v. dose 25.5 mg/kg): 1/9
- % T/C (optimal % T/C following final treatment) ([6]; single i.v. dose 34 mg/kg): 11%
- DRD (drug related deaths) ([6]; single i.v. dose 34 mg/kg): 0/10
- MWL (maximum mean weight loss per treatment group) ([6]; single i.v. dose 34 mg/kg): −17.4
- NCI Score ([6]; single i.v. dose 34 mg/kg): 1
- T-C (tumor growth delay to 1000 mm^3) ([6]; single i.v. dose 34 mg/kg): 16
- TF (tumor free animals at the end of study) ([6]; single i.v. dose 34 mg/kg): 3/10
- MTD ([7]; NCr nu/nu and ICR, mouse, in vivo, intravenous, q7dx3 dose schedule, estimated, read-out: maximum tolerated dose (MTD)): 25 to 30 mg/kg
- MTD ([7]; NCr nu/nu and ICR, mouse, in vivo, single dose, estimated, read-out: maximum tolerated dose (MTD)): 30 mg/kg
- MTD ([7]; given intravenously on a q7dx3 schedule): 27.5 mg/kg/dose
- MTD used in the calculation of therapeutic index (TI) ([7]; q7dx3, derived from Table 5): 27.5 mg/kg
- anemia [8, 9]: 83%
- leukopenia [8, 9]: 92%
- thrombocytopenia [8, 9]: 5%
- Peripheral neuropathy ([8]; clinical): 25%
- phlebitis ([8]; clinical): 7%
